Tests used:
Format in all cases: in vivo
[1] = test system: Wheat kernels; assay: Germination rate of wheat in combination with fungicides (greenhouse); details: fungicides 25 g/dt in NMP, compound A1 0.1 mg/ha, soil, greenhouse 15° C., 70% humidity, 7 days, solvent control 69
Protocol: The test is performed under greenhouse conditions.
Wheat kernels were treated with different fungicides (25 g/dt in NMP) or a mixture of compound A1 (0.1 mg/ha in 1:1, acetonitril/water) with the fungicides. Kernels were planted in soil and grown in the greenhouse at 15° C., 70% humidity, 14 h day/light cycle for 7 days.
Controls are performed in the same conditions in the absence of active ingredients. Assessment consisted of counting seedlings per treatment.

[2] = test system: maize; assay: Germination rate of maize in combination with insecticides (greenhouse); details: clothianidin 1.25, imidacloprid 0.75 mg ai/corn, compound A1 1 mg/ha, greenhouse 10° C., 80% humidity, 9 days, solvent control 17
Protocol: (§1) The test was performed under greenhouse conditions. Kernels were treated with different insecticides (ready formulated) or a mixture of compound A1 (1 mg/ha in 1:1, acetonitril/water) with the insecticides. Kernels were planted in soil and grown in the greenhouse at 20° C., 80% humidity, 12 h day/light cycle for 4 days (wheat) and at 10° C., 80% humidity, 12 h day/light cycle for 9 days (maize). Controls are performed in the same conditions in the absence of active ingredients. Assessment consisted of counting seedlings per treatment.

[3] = test system: wheat; assay: Germination rate of wheat in combination with insecticides (greenhouse); details: thiacloprid 1.00 mg ai/corn, compound A1 1 mg/ha, greenhouse 20° C., 80% humidity, 4 days, solvent control 64
Protocol: as §1

| Compound | % germination [1] | other results |
| --- | --- | --- |
| Cc1nn(C)c(F)c1C(=O)Nc1ccccc1C(C)CC(C)C (stereo not drawn) [Penflufen] | 47% | – |
| CN/C(=N\[N+](=O)[O-])NCc1cnc(Cl)s1 [clothianidin] | – | germination % maize 9 d [2]: 8% |
| N#Cc1c[nH]cc1-c1cccc2c1OC(F)(F)O2 [fludioxonil] | 23% | – |
| CO/N=C(/C1=NOCCO1)c1ccccc1Oc1ncnc(Oc2ccccc2Cl)c1F [fluoxastrobin] | 4% | – |
| CC(C)(C)C(O)(CCc1ccc(Cl)cc1)Cn1cncn1 (stereo not drawn) [tebuconazole] | 21% | – |
| N#C/N=C1\SCCN1Cc1ccc(Cl)nc1 [thiacloprid] | – | germination % wheat 4 d [3]: 9% |
